In brackets after ≈: the same amount, converted by molar mass. Positions of bridges follow the written chain, without caps; N, C: chain ends. Non-standard residues stand in square brackets, D forms with d. Residues, ends and D or L forms follow the SMILES beside them. *: point of attachment. Octanoyl = CCCCCCCC(=O)*; Orn = NCCC[C@H](N)C(=O)O; Dab = NCC[C@H](N)C(=O)O; Dap = NC[C@H](N)C(=O)O

Four compounds from patent USRE48335E1, “Polymyxin derivatives as antimicrobial compounds” (priority 2014, dated 2020) can be followed below.

Test [1] deals with Acinetobacter baumannii. Put shortly: (§1)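 Lipopeptide TFA salts are serially diluted in cation-adjusted Mueller-Hinton broth and inoculated per the CLSI M100-S18 broth microdilution method. The MIC is then recorded, with polymyxin B sulphate included as a control.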
In test [2] the test system is Enterobacter cloacae. The method in brief:
as §1

Test [3] has as its system Pseudomonas aeruginosa. Put shortly: as §1

As to `CCCCCCCC(=O)N[C@@H](CCN)C(=O)N[C@H](C(=O)N[C@@H](CN)C(=O)N[C@H]1CCNC(=O)[C@H]([C@@H](C)O)NC(=O)[C@H](CN)NC(=O)[C@H](CCN)NC(=O)[C@H]([C@@H](C)O)NC(=O)[C@@H](CC(C)C)NC(=O)[C@H](CCN)NC1=O)[C@@H](C)O` [Compound 50] (Octanoyl-[Dab]T[Dap][Dab][Dab][dL]T[Dab][Dap]T; lactam 4-C), in test [1], the “Minimum inhibitory concentration, Ab A ATCC 17978” value amounted to 0.5 µg/mL (≈ 0.448 µM); the “Minimum inhibitory concentration, Ab ATCC 19606” value stood at 0.5 µg/mL (≈ 0.448 µM); the “Minimum inhibitory concentration, Ab FADDI-AB034” value amounted to 1 µg/mL (≈ 0.897 µM). Moreover, in test [2], the “Minimum inhibitory concentration, Ec FADDI-EC001” value was less than 0.125 µg/mL; the “Minimum inhibitory concentration, Ec FADDI-EC003” value was less than 0.125 µg/mL; the “Minimum inhibitory concentration, Ec FADDI-EC006” value is less than 0.125 µg/mL. In test [3], the “Minimum inhibitory concentration, Pa ATCC 27853” value was found to be 1 µg/mL (≈ 0.897 µM); the “Minimum inhibitory concentration, Pa FADDI-PA022” value turned out to be 0.5 µg/mL (≈ 0.448 µM); the “Minimum inhibitory concentration, Pa FADDI-PA025” value is more than 32 µg/mL.

Turning to `CCCCCCCC(=O)N[C@@H](CCN)C(=O)N[C@H](C(=O)N[C@@H](CN)C(=O)N[C@H]1CCNC(=O)[C@H]([C@@H](C)O)NC(=O)[C@H](CCN)NC(=O)[C@H](CN)NC(=O)[C@H]([C@@H](C)O)NC(=O)[C@@H](CC(C)C)NC(=O)[C@H](CCN)NC1=O)[C@@H](C)O` [Compound 51] (Octanoyl-[Dab]T[Dap][Dab][Dab][dL]T[Dap][Dab]T; lactam 4-C), in test [1], the “Minimum inhibitory concentration, Ab A ATCC 17978” value was determined as 4 µg/mL (≈ 3.59 µM); the “Minimum inhibitory concentration, Ab ATCC 19606” value was 4 µg/mL (≈ 3.59 µM); the “Minimum inhibitory concentration, Ab FADDI-AB034” value worked out at 8 µg/mL (≈ 7.17 µM). In test [2], the “Minimum inhibitory concentration, Ec FADDI-EC001” value came out at 0.25 µg/mL (≈ 0.224 µM); the “Minimum inhibitory concentration, Ec FADDI-EC003” value was 0.25 µg/mL (≈ 0.224 µM); the “Minimum inhibitory concentration, Ec FADDI-EC006” value is 1 µg/mL (≈ 0.897 µM). Moreover, in test [3], the “Minimum inhibitory concentration, Pa ATCC 27853” value came out at 1 µg/mL (≈ 0.897 µM); the “Minimum inhibitory concentration, Pa FADDI-PA022” value was determined as 0.5 µg/mL (≈ 0.448 µM); the “Minimum inhibitory concentration, Pa FADDI-PA025” value was more than 32 µg/mL.

With `CCCCCCCC(=O)N[C@@H](CCN)C(=O)N[C@H](C(=O)N[C@@H](CN)C(=O)N[C@H]1CCNC(=O)[C@H]([C@@H](C)O)NC(=O)[C@H](CCN)NC(=O)[C@H](CCN)NC(=O)[C@H]([C@@H](C)O)NC(=O)[C@@H](CC(C)C)NC(=O)[C@H](CN)NC1=O)[C@@H](C)O` [Compound 52] (Octanoyl-[Dab]T[Dap][Dab][Dap][dL]T[Dab][Dab]T; lactam 4-C), in test [1], the “Minimum inhibitory concentration, Ab A ATCC 17978” value was 0.5 µg/mL (≈ 0.448 µM); the “Minimum inhibitory concentration, Ab ATCC 19606” value stood at 1 µg/mL (≈ 0.897 µM); the “Minimum inhibitory concentration, Ab FADDI-AB034” value was 0.5 µg/mL (≈ 0.448 µM). In test [2], the “Minimum inhibitory concentration, Ec FADDI-EC001” value stood at 0.25 µg/mL (≈ 0.224 µM); the “Minimum inhibitory concentration, Ec FADDI-EC003” value was determined as 0.25 µg/mL (≈ 0.224 µM); the “Minimum inhibitory concentration, Ec FADDI-EC006” value came out at 0.5 µg/mL (≈ 0.448 µM). Also, in test [3], the “Minimum inhibitory concentration, Pa ATCC 27853” value was 0.5 µg/mL (≈ 0.448 µM); the “Minimum inhibitory concentration, Pa FADDI-PA022” value turned out to be 1 µg/mL (≈ 0.897 µM); the “Minimum inhibitory concentration, Pa FADDI-PA025” value was more than 32 µg/mL.

As to `CCCCCCCC(=O)N[C@@H](CCN)C(=O)N[C@H](C(=O)N[C@@H](CN)C(=O)N[C@H]1CCNC(=O)[C@H]([C@@H](C)O)NC(=O)[C@H](CCCN)NC(=O)[C@H](CCN)NC(=O)[C@H]([C@@H](C)O)NC(=O)[C@@H](CC(C)C)NC(=O)[C@H](CCN)NC1=O)[C@@H](C)O` [Compound 53] (Octanoyl-[Dab]T[Dap][Dab][Dab][dL]T[Dab][Orn]T; lactam 4-C), in test [1], the “Minimum inhibitory concentration, Ab A ATCC 17978” value came out at 8 µg/mL (≈ 7 µM); the “Minimum inhibitory concentration, Ab ATCC 19606” value was 16 µg/mL (≈ 14 µM); the “Minimum inhibitory concentration, Ab FADDI-AB034” value came out at 8 µg/mL (≈ 7 µM). In test [2], the “Minimum inhibitory concentration, Ec FADDI-EC001” value was determined as 0.5 µg/mL (≈ 0.437 µM); the “Minimum inhibitory concentration, Ec FADDI-EC003” value came out at 2 µg/mL (≈ 1.75 µM); the “Minimum inhibitory concentration, Ec FADDI-EC006” value was determined as 8 µg/mL (≈ 7 µM). For the same compound, in test [3], the “Minimum inhibitory concentration, Pa ATCC 27853” value was found to be 8 µg/mL (≈ 7 µM); the “Minimum inhibitory concentration, Pa FADDI-PA022” value was determined as 2 µg/mL (≈ 1.75 µM); the “Minimum inhibitory concentration, Pa FADDI-PA025” value is more than 32 µg/mL.
